Key:
[1] = Kinetic solubility in PBS buffer (Method 5); type: physicochemical; details: aqueous buffer, kinetic from dmso stock; PBS buffer pH 7.4
Procedure: [formula] [formula] [formula] where V=Incubation volume (μL)/number of cells Method 5: Determination of Kinetic Solubility (in PBS Buffer)
Test compounds (5 μL; 10 mM DMSO stock) were added to 245 μL 10 of PBS buffer pH 7.4 (Dulbecco A) in a Millipore MultiScreen® Solubility Filter plate and mixed at 300 rpm at room temperature on a plate shaker for 90 minutes. Meanwhile 5-points calibration curves for each compound were established in a mixture of acetonitrile/PBS buffer 15 (top concentration 200 μM). After filtration and matrix match, the calibration and assay plates were analysed on a Bioteck Synergy 4 plate reader (240-400 nm). Final concentration of the test compound in the filtrate was calculated using the slope of the calibration curve. All 20 measurements were carried out in triplicate.

Wee-1 kinase = biological target: T1, Wee-1 kinase (Homo sapiens, UniProt P30291); experiment: Measurement of Wee-1 kinase activity (ADP-Glo luminescent kit); type: biochemical
T1 construct: purchased Invitrogen PV3817
T1 sequence (P30291 whole entry): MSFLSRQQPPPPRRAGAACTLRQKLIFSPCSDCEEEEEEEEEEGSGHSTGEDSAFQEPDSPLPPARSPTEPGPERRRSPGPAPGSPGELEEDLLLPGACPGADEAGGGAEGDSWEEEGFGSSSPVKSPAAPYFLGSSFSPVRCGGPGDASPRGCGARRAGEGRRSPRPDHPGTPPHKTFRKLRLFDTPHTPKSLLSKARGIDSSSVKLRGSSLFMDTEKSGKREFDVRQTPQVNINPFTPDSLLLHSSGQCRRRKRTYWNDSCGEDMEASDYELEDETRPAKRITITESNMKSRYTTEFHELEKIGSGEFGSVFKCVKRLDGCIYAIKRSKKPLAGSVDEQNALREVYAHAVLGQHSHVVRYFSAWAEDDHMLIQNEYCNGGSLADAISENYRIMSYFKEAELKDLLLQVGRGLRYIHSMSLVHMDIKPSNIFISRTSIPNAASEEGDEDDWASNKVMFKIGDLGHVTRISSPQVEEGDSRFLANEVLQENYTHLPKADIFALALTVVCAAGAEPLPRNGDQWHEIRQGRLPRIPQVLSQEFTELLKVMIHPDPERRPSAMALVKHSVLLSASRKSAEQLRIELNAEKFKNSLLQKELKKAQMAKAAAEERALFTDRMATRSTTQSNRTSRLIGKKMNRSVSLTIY
Method in brief: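 ADP-Glo luminescence reads ADP made over 1 h at RT, after an aliquot of 30 μM ATP and 2.0 μg/mL poly(Lys,Tyr 4:1) substrate. Before that, the kinase sat 30 min with inhibitor in Tris-HCl/MgCl2 buffer with BSA and DTT. IC50 came from regression of percent inhibition.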

[2] = tested on: phospho-cdc2 (Tyr15) in HT-29 cells; experiment: Effect on phosphorylation of cdc2 at Tyr15, PathScan ELISA (Method 2); type: cell-based; details: Homo sapiens, 8 h, eight hours incubation, read-out: HT29 pCDC2 method 2
Procedure: Method 2: Determining the Effect of Compounds on the phosphorylation of cdc2 at Tyr15
The colorectal cancer cell lines HT-29 and HCT-116 were purchased from the ATCC and routinely maintained in McCoy's Medium (Invitrogen) supplemented with 10% Foetal Calf Serum.
The cells were trypsinised from their growing vessel and counted, 100 μL of cell suspension containing 6000 cells was pipetted into black 96 well Co-star plates and incubated overnight to allow adherence to the surface at a temperature of 37° C. and an atmosphere of 5% CO2. Test compounds were formulated in DMSO and diluted in foetal calf serum supplemented medium. Incubating medium was removed by aspiration and diluted drug supplemented medium added to each well.
The plate was returned to the incubator for an additional eight hours at 37° C. and an atmosphere of 5% CO2. Post incubation, the drug supplemented medium was aspirated from each well and the cells were washed once in ice-cold phosphate buffered saline (PBS). 100 μL of cell lysis buffer (Cell Signalling Technologies #9803) containing 20 mM Tris, 150 mM NaCl, 1 mM EDTA, 1 mM EGTA, 1% Triton-X100, 2.5 mM sodium pyrophosphate, 1 mM glycerophosphate, 1 mM Na3VO4 and 1 μg/mL leupeptin was added to each well of the 96 well plate and incubated at 4° C. for 30 min. The samples on the plate were snap frozen at −80° C. until required. Immediately before the continuation of the assay, the sample plate was thawed and centrifuged at 4° C. for 10 min and the supernatant transferred to secondary tubes or 96 well plate.
Cell supernatant was mixed in a ratio of 1:1 with sample dilutent buffer and vortexed for one minute. 100 μL of diluted sample was pipetted into pre-coated plates containing a rabbit polyclonal antibody for phospho-cdc2 (Tyr15) (Cell Signalling Technologies PathScan kit #7176). The plate was sealed and incubated overnight at 4° C.
The plate seal was removed and the well contents aspirated, followed by 3×5 min washes with 200 μL of diluted wash buffer. Between each wash the plate was tapped firmly onto blotting paper to ensure the removal of all kit solution. 100 μL of kit detection antibody was added to each well and the plate re-sealed and incubated at 37° C. for 1 h. Post incubation the plate was washed and processed in a similar manner to that previously described.
100 μL of horseradish peroxidise-linked secondary antibody was added to each test well, the plate sealed and incubated for thirty minutes at 37° C. Post incubation, the plate was washed as previously stated, followed by the addition of 100 μL of 3,3′,5,5′ tetramethylbenzidine (TMB reagent). The plate was sealed and incubated at RT for 30 min.
100 μL of stop solution was added to each well and the underside of the plate wiped with a lint-free tissue, prior to spectrophotometric determination. Absorbance from each well was read at 450 nm within 30 min of the addition of the stop solution.
The percentage of phospho-cdc2 was calculated compared to DMSO control and plotted versus the concentration of inhibitor using GraphPad Prism. Data was fitted using non-linear regression analysis and IC50 values generated.

[3] = CLint estimates using human liver microsomes (Method 4); type: in vitro ADME; details: pH 7.4, 1 μM compound, read-out: Mics - CLint (HLM CLint)
Method in brief: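 Depletion measured by LC/MS/MS in MRM mode over 2–50 min after starting reactions with 1 mM NADPH. Incubations used 0.5 mg/mL human liver microsomal protein, 1 μM compound, 0.1% DMSO, pH 7.4 phosphate buffer, 37 °C. ln peak area plotted against time; the gradient gave t½ and intrinsic clearance.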

[4] = biological target: T2, human ether a go-go related gene (hERG) K′ channel (Homo sapiens, UniProt Q12809); experiment: hERG activity, IonWorks patch clamp electrophysiology (Method 6); type: cell-based
T2 construct: Essen BioScience
T2 sequence (Q12809 whole entry): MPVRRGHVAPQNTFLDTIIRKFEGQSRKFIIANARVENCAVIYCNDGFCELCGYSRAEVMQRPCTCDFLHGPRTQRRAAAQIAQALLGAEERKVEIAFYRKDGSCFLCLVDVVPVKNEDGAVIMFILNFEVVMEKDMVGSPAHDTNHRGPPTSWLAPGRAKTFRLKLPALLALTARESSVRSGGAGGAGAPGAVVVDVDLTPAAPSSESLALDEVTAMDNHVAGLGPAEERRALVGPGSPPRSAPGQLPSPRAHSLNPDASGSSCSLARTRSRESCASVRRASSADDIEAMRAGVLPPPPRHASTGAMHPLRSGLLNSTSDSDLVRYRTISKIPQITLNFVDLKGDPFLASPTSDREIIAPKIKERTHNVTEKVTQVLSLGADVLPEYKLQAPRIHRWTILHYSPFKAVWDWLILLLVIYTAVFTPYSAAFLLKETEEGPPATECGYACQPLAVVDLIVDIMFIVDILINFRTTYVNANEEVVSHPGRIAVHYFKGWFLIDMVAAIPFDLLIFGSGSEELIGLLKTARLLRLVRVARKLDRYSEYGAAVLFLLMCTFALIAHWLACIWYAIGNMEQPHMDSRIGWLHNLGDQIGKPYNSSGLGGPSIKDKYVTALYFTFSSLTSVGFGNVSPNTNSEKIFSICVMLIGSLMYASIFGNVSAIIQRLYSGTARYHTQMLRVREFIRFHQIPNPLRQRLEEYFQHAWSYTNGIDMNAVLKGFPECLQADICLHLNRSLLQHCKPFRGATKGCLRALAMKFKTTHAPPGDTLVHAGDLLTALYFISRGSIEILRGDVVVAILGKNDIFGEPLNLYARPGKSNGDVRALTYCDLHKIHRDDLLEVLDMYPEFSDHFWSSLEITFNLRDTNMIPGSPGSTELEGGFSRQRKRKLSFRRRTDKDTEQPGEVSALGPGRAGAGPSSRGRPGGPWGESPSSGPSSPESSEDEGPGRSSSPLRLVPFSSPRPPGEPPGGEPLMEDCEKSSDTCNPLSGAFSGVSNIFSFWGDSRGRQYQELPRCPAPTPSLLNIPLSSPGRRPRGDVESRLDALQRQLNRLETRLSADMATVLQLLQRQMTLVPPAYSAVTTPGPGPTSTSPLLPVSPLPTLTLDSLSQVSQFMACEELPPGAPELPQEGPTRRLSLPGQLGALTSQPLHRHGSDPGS
Procedure: Method 6: Determination of hERG Activity
Compounds were tested for inhibition of the human ether a go-go related gene (hERG) K′ channel using IonWorks patch clamp electrophysiology at Essen BioScience. 8-Point concentration-response curves of the effect of compound on hERG current as a percentage of pre-compound signal were generated using 3-fold serial dilutions from 11 μM and results are reported as IC50 in μM.

Row | Compound | solubility kinetic at 90 min [1] [µM] | IC50 (Wee-1 kinase) [nM] | IC50 [2] [nM] | microsomal CLint at 1 μM [3] [µL/min/mg] | IC50 [4] [nM]
1 | Cc1cc(Nc2ncc3c(n2)N(C)CN(c2c(Cl)cccc2Cl)C3=O)ccc1N1CCNCC1 [drawing 385] | > 150 | – | – | – | –
2 | CN1CN(c2c(Cl)cccc2Cl)C(=O)c2cnc(Nc3ccc(N4CCNCC4)cc3)nc21 [drawing 383] | > 150 | – | – | – | –
3 | CN1CN(c2c(Cl)cccc2Cl)C(=O)c2cnc(Nc3ccc(N4CCNCC4)c(CO)c3)nc21 [Example 10, 3-(2,6-Dichlorophenyl)-7-((3-(hydroxymethyl)-4-(piperazin-1-yl)phenyl)amino)-1-methyl-2,3-dihydropyrimido[4,5-d]pyrimidin-4(1H)-one] | – | ≤ 10 | 100 to 1000 | ≤ 15 | > 10000
4 | CN1CN(c2c(Cl)cccc2Cl)C(=O)c2cnc(Nc3ccc(CN4CCNCC4)cc3)nc21 [Example 12, 3-(2,6-Dichlorophenyl)-1-methyl-7-((4-(piperazin-1-ylmethyl)phenyl)amino)-2,3-dihydropyrimido[4,5-d]pyrimidin-4(1H)-one] | – | 10 to 100 | 100 to 1000 | ≤ 15 | > 10000
5 | CN1CN(c2c(Cl)cccc2Cl)C(=O)c2cnc(Nc3ccc(N4CCN[C@H](CO)C4)cc3)nc21 [Example 20, (S)-3-(2,6-Dichlorophenyl)-7-((4-(3-(hydroxymethyl)piperazin-1-yl)phenyl)amino)-1-methyl-2,3-dihydropyrimido[4,5-d]pyrimidin-4(1H)-one] | – | ≤ 10 | 100 to 1000 | 15 to 50 | > 10000

Continued, in another order:

Row | solubility kinetic at 90 min [1] [µM] | IC50 (Wee-1 kinase) [nM] | IC50 [2] [nM] | microsomal CLint at 1 μM [3] [µL/min/mg] | Compound | IC50 [4] [nM]
6 | < 50 | – | – | – | Cc1cn(-c2c(Cl)cccc2Cl)c(=O)c2cnc(Nc3ccc(N4CCNCC4)cc3)nc12 [reference compound] | –
7 | < 50 | – | – | – | Cc1cc(Nc2ncc3c(=O)n(-c4c(Cl)cccc4Cl)cc(C)c3n2)ccc1N1CCNCC1 [reference compound] | –

Reference: patent publication US9850247B2 (Almac Discovery Limited, priority 2013, dated 2017)
